Laboratory results from patent US20250009856A1, “METHODS FOR TREATING RESPIRATORY DISEASES” (MUCPharm Pty Ltd, priority 2021, published 2025).
Where “and” joins values, the source holds several entries; their conditions need not be identical. Equal values may be shown once.

Experiments:
[1] = system: chemokines, cytokines and growth factors in tracheal aspirate samples from COVID-19 patients; test: Immunological inflammatory mediators, 27-plex bead assay; design: species or system human; details: BromAc 125 and 250 mcg + 2% NAC, or NAC alone at 2%; 60 minutes, 37° C.
Procedure: In order to verify the effect of BromAc in the inflammatory mediators present in tracheal aspirate (TA) samples from COVID-19 patients. TA specimens were treated with 125 to 250 μg of Bromelain and 2% NAC (BromAc) using the MAD device as described previously. Treated and untreated TA specimens were incubated at 37° C. in 6 well plates for 1 hour. After that, TA specimen aliquots were initially cleared by centrifugation at 800×g for 10 min, at room temperature and TA supernatants were transferred to fresh 2 mL microtubes. Samples were diluted 1:10 and incubated with magnetic beads covered with monoclonal antibodies specific to several immunological mediators, such as: chemokines (CXCL8, CCL11, CCL3, CCL4, CCL2, and CXCL10), inflammatory cytokines (IL-1b, IL-6, TNF-α, IL-12, IFN-g, IL-15 and IL-17), regulatory cytokines (IL-1Ra, IL-9. IL-10) and growth factors (FGF-basic, PDGF, VEGF, G-CSF. GM-CSF, IL-2 and IL-7). Experiments were carried out according to the manufacturer's instructions using the Procarta Human Cytokine 27-plex Assay, (Invitrogen, CA, USA). The immunological mediators were measured in TA samples and the concentrations of each sample was determined according to standard curves run for each molecule tested using a fifth parameter logistic fit analysis. The results were expressed as pg/mL for all mediators tested. […]

[2] = Pipette flow speed after aerosol treatment; design: species or system human; details: SS; for Pipette flow speed (€), After: before 0.0137 ± 0.005
Procedure: Six grams of soft PMP mucin was homogenised using a shredder with phosphate buffer saline (PBS) (3.0 ml) with sonification and vortexed until a homogenous mixture was formed, with incubation at 37° C. to remove air bubbles and after which viscosity was adjusted (further dilutions with PBS). The pH was adjusted to 7.0 using either 1.0 M NaOH or 0.1 N Hydrochloric acid. Using a 0.5 ml glass pipette fixed at an angle of 60°, 0.5 ml of sample at 25° C. (ambient room temperature) was sucked up the pipette and the time taken to empty 0.3 ml of the sample was timed in sec. Pipette flow time (€) was calculated as follows: € (ml/sec)=0.3 ml/Time to empty 0.3 ml (sec) A similar investigation as above was carried out to determine a comparative dynamic viscosity and pipette flow time for PMP mucin simulated sputa (SS). A similar treatment as in the experiment described above for NAC was carried out using Bromelain (125 and 250 μg/ml) in PBS (pH.7.0) along with control using PBS (pH.7.0). Both dynamic viscosity and pipette flow time was measured as outlined earlier for both artificial and PMP simulated sputa models. Using a combination of NAC (20 mg/ml) with either 125 or 250 μg/ml Bromelain in PBS (pH.7.0), a similar investigation was carried out as outlined earlier and measurements were made for both artificial and simulated sputa models. D=(TREATED)−(UNTREATED/(UNTREATED)×100.

[3] = Pipette flow speed after aerosol treatment; details: AS; for Pipette flow speed (€), After: before 0.005 ± 0.001
Procedure: Artificial sputum was prepared following protocol as detailed by […] et al (Kirchner, S., et al., Use of artificial sputum medium to test antibiotic efficacy against Pseudomonas aeruginosa in conditions more relevant to the cystic fibrosis lung. Journal of visualized experiments: JOVE, 2012 (64)). Briefly 250 mg of porcine mucin, 200 mg of sperm DNA, 295 mg of diethylene triamine pentaacetic acid (DPTA), 25 mg sodium chloride, 110 mg potassium chloride, 140 mg Tris base were mixed in a volume of 45 ml of distilled water and pH adjusted to 7.0 using Trisbase. The volume of the solution was then adjusted to 50 ml. Further dilutions were then carried out to adjust viscosity as desired. Using a 0.5 ml glass pipette fixed at an angle of 60°, 0.5 ml of sample at 25° C. (ambient room temperature) was sucked up the pipette and the time taken to empty 0.3 ml of the sample was timed in sec. Pipette flow time (€) was calculated as follows: € (ml/sec)=0.3 ml/Time to empty 0.3 ml (sec) Artificial sputa (AS) were prepared as detailed above, and 1.5 ml of artificial sputum was carefully emptied into an endotracheal tube (in triplicates). A volume of 6.0 ml of NAC 10 mg/ml in PBS (pH.7.0) in triplicate was aerosolised using a nebulizer and passed over the sputum samples in the endotracheal tubes kept at 37° C. in a water bath. Similarly, the experiments were repeated using NAC 20 mg/ml in PBS (pH.7.0). The controls only received PBS (pH 7.0). The aerosol delivery time to empty 6.0 ml for each treatment was 25 min. The dynamic viscosity of the sputa was measured before and after using the capillary tube method, whilst the pipette flow time was also measured as described earlier using a 0.5 ml glass pipette. Samples were equilibrated to 25° C. before measurement A similar treatment as in the experiment described above for NAC was carried out using Bromelain (125 and 250 μg/ml) in PBS (pH.7.0) along with control using PBS (pH.7.0). Both dynamic viscosity and pipette flow time was measured as outlined earlier for both artificial and PMP simulated sputa models. Using a combination of NAC (20 mg/ml) with either 125 or 250 μg/ml Bromelain in PBS (pH.7.0), a similar investigation was carried out as outlined earlier and measurements were made for both artificial and simulated sputa models. D=(TREATED)-(UNTREATED/(UNTREATED)×100.

SPF rabbits = test: Tolerability study of inhaled BromAc in rabbit model; details: Ac 20 mg inhaled; 48 h
sheep lungs = test: Ventilated sheep lung model, endotracheal tube plugged with PMP mucin; details: nebulised twice over 60 minutes; saline showed slight drop

## CC(=O)N[C@@H](CS)C(=O)O [NAC, N-acetylcysteine]
[1]
  IL-9 level, compared to untreated: the same effect was observed
[2]; aerosol NAC 10 mg/ml
  D (%), increase of pipette flow speed (€): 34% and 34 ↑ %
  Pipette flow speed (€), After: 0.0183 ± 0.001 mL/s
[2]; aerosol NAC 20 mg/ml
  D (%), increase of pipette flow speed (€): 46% and 46 ↑ %
  Pipette flow speed (€), After: 0.02 ± 0.002 mL/s
[3]; aerosol NAC 10 mg/ml
  D (%), increase of pipette flow speed (€): 28% and 28 ↑ %
  Pipette flow speed (€), After: 0.0064 ± 0.003 mL/s
[3]; aerosol NAC 20 mg/ml
  D (%), increase of pipette flow speed (€): 40% and 40 ↑ %
  Pipette flow speed (€), After: 0.007 ± 0.001 mL/s
SPF rabbits
  Incident: Broncho-interstitial pneumonia, multifocal, mild: 1 out of 4
  Incident: Broncho-interstitial pneumonia, multifocal, mild, granulomatous: 3 out of 4
Sheep lungs
  Minute volume (MV) over 60 minutes: substantial rise in MV
